# Measured values from patent publication US20170313674A1, “BENZYLHYDROXIDE DERIVATIVES, PREPARATION THEREOF AND THERAPEUTIC USE THEREOF” (SANOFI, priority 2014, published 2017).
# pIC50: −log10 of the molar value. Structures can show the parent of a compound that is named as a salt.
# System: mitochondrial ATP production on non-small cell lung carcinoma cell lines NCI-H460
# Experiment: Mitochondrial ATP analysis (Cell Titer Glo) in NCI-H460 cells
# Type: cell-based
# Details: 1-hour incubation, with sodium iodoacetate (100 μM), concentration inhibiting 50% of mitochondrial ATP production, read-out: IC50 (mito ATP)
# Method: In order to evaluate the inhibitory activity of the all compounds, an in vitro assay was developed which read out is directly linked to mitochondrial complex 1 inhibition. Since mitochondrial complex 1 contributes to the formation of membrane potential coupled to the mitochondrial ATP synthesis, complex 1 inhibition directly leads in cells to the inhibition of mitochondrial ATP production. Cellular ATP contents were measured in presence of either glycolysis inhibitor (sodium iodocetate) and/or mitochondrial inhibitors (F0F1-ATPase inhibitor: oligomycin or mitochondrial uncoupler: FCCP) to determine the ATP production part relying either on glycolytic or on mitochondrial metabolism.
# Mitochondrial ATP Analysis
# The compounds of the invention were evaluated for their ability to inhibit mitochondrial
# ATP was measured using the Promega Cell Titer Glo kit and protocol. In summary, 1,000 cells were plated in 40 μL in a 384 well plate. 24 hours later, medium was replaced by 20 μl culture medium in presence of compounds: cells were treated in replicates of five with control (PBS), oligomycin A (10 μg/ml), FCCP (30 μM), or the compounds of the invention in dose effect both alone or in combination with sodium iodoacetate (100 μM). Following a 1-hour incubation, 20 μL of CellTtiter-glo™ reaction mix were added to each well for a final volume of 40 μL. Plates were then analyzed for luminescence with a Perkin Elmer EnVision. By comparing the different conditions, global ATP and percentages of both glycolytic and mitochondrial ATP were determined.
# The mitochondrial ATP production was calculated as the remaining ATP under iodoacetate treatment minus basal ATP (ATP content under iodoacetate and oligomycin treatment). Inhibitory activity of the compounds on mitochondrial ATP in NCI-H460 cells is expressed as the concentration needed to inhibit 50% of mitochondrial ATP production (IC50, M).
row,pIC50,Compound
1,6.81,"COc1ccc(C(O)COc2ccc(-c3nc(-c4ccc(OC(C)(C)C(O)c5ccc(OC)c(OC)c5)cc4)cs3)cc2)cc1OC (single isomer, unassigned) [Compound I-67, 1-(3,4-dimethoxyphenyl)-2-[4-[2-[4-[2-(3,4-dimethoxyphenyl)-2-hydroxy-ethoxy]phenyl]thiazol-4-yl]phenoxy]-2-methyl-propan-1-ol]"
2,5.08,"COc1ccc(C(O)COc2ccc(-c3nc(C)c(-c4ccc(OCC(O)c5ccc(OC)c(OC)c5)cc4)o3)cc2)cc1OC (single isomer, unassigned) [Compound I-5, 1-(3,4-dimethoxyphenyl)-2-[4-[2-[4-[2-(3,4-dimethoxyphenyl)-2-hydroxy-ethoxy]phenyl]-4-methyl-oxazol-5-yl]phenoxy]ethanol]"
3,6.27,"COc1ccc(C(O)COc2ccc(-c3nsc(-c4ccc(OCC(O)c5ccc(OC)c(OC)c5)cc4)n3)cc2)cc1OC (single isomer, unassigned) [Compound I-41, 1-(3,4-dimethoxyphenyl)-2-[4-[5-[4-[2-(3,4-dimethoxyphenyl)-2-hydroxy-ethoxy]phenyl]-1,2,4-thiadiazol-3-yl]phenoxy]ethanol]"
4,6.71,"COc1ccc(C(O)COc2ccc(-c3csc(-c4ccc(OCC(O)c5ccc(OC)c(OC)c5)cc4)n3)cc2)cc1OC (single isomer, unassigned) [Compound I-23, 1-(3,4-dimethoxyphenyl)-2-[4-[2-[4-[2-(3,4-dimethoxyphenyl)-2-hydroxy-ethoxy]phenyl]thiazol-4-yl]phenoxy]ethanol]"
5,< 5.00,"COc1ccc(C(O)COc2ccc(-c3csc(-c4ccc(OCC(O)c5ccc(OC)c(OC(F)F)c5)cc4)n3)cc2)cc1OC(F)F (single isomer, unassigned) [Compound I-49, 1-[3-(difluoromethoxy)-4-methoxy-phenyl]-2-[4-[2-[4-[2-[3-(difluoromethoxy)-4-methoxy-phenyl]-2-hydroxy-ethoxy]phenyl]thiazol-4-yl]phenoxy]ethanol]"
6,7.48,"COc1ccc(C(O)COc2ccc(-c3nc(-c4ccc(OC(C)(C)C(O)c5ccc(OC)c(OC)c5)cc4)cs3)cc2)cc1OC (single isomer, unassigned) [Compound I-68, 1-(3,4-dimethoxyphenyl)-2-[4-[2-[4-[2-(3,4-dimethoxyphenyl)-2-hydroxy-ethoxy]phenyl]thiazol-4-yl]phenoxy]-2-methyl-propan-1-ol]"
7,5.87,"COc1ccc(C(O)COc2ccc(-c3csc(-c4ccc(OCC(O)c5ccc(OC)c(OC(F)F)c5)cc4)n3)cc2)cc1OC(F)F (single isomer, unassigned) [Compound I-50, 1-[3-(difluoromethoxy)-4-methoxy-phenyl]-2-[4-[2-[4-[2-[3-(difluoromethoxy)-4-methoxy-phenyl]-2-hydroxy-ethoxy]phenyl]thiazol-4-yl]phenoxy]ethanol]"
8,< 5.00,"COc1ccc(C(O)COc2ccc(-c3cn(CCN4CCOCC4)c(-c4ccc(OCC(O)c5ccc(OC)c(OC)c5)cc4)n3)cc2)cc1OC (centres unmarked) [Compound I-60, 1-(3,4-dimethoxyphenyl)-2-[4-[2-[4-[2-(3,4-dimethoxyphenyl)-2-hydroxy-ethoxy]phenyl]-1-(2-morpholinoethyl)imidazo1-4-yl]phenoxy]ethanol hydrochloride]"
9,< 5.00,"COc1cc(C(O)COc2ccc(-c3csc(-c4ccc(OCC(O)c5ccc(OC(F)F)c(OC)c5)cc4)n3)cc2)ccc1OC(F)F (single isomer, unassigned) [Compound I-52, 1-[4-(difluoromethoxy)-3-methoxy-phenyl]-2-[4-[2-[4-[2-[4-(difluoromethoxy)-3-methoxy-phenyl]-2-hydroxy-ethoxy]phenyl]thiazol-4-yl]phenoxy]ethanol]"

# Same assay, conditions: Homo sapiens, NCI-H460, 1 h, 1-hour incubation, with sodium iodoacetate (100 μM), concentration inhibiting 50% of mitochondrial ATP production, read-out: IC50 (mito ATP)
row,pIC50,Compound
1,< 5.00,"COc1ccc(C(O)COc2ccc(-c3nc(C)c(-c4ccc(OCC(O)c5ccc(OC)c(OC)c5)cc4)o3)cc2)cc1OC (single isomer, unassigned) [Compound I-46, 1-(3,4-dimethoxyphenyl)-2-[4-[2-[4-[2-(3,4-dimethoxyphenyl)-2-hydroxy-ethoxy]phenyl]-4-methyl-oxazol-5-yl]phenoxy]ethanol]"
2,5.56,"COc1ccc(C(O)C(C)(C)Oc2ccc(-c3cn(CCN4CCOCC4)c(-c4ccc(OC(C)(C)C(O)c5ccc(OC)c(OC)c5)cc4)n3)cc2)cc1OC (centres unmarked) [Compound I-59, 1-(3,4-dimethoxyphenyl)-2-[4-[2-[4-[2-(3,4-dimethoxyphenyl)-2-hydroxy-1,1-dimethyl-ethoxy]phenyl]-1-(2-morpholinoethyl)imidazo1-4-yl]phenoxy]-2-methyl-propan-1-ol]"
3,6.55,"COc1ccc(C(O)COc2ccc(-c3nsc(-c4ccc(OCC(O)c5ccc(OC)c(OC)c5)cc4)n3)cc2)cc1OC (single isomer, unassigned) [Compound I-40, 1-(3,4-dimethoxyphenyl)-2-[4-[5-[4-[2-(3,4-dimethoxyphenyl)-2-hydroxy-ethoxy]phenyl]-1,2,4-thiadiazol-3-yl]phenoxy]ethanol]"
4,5.81,"COc1cc(C(O)COc2ccc(-c3coc(-c4ccc(OCC(O)c5ccc(Cl)c(OC)c5)cc4)n3)cc2)ccc1Cl (centres unmarked) [Compound I-15, 1-(4-chloro-3-methoxy-phenyl)-2-[4-[2-[4-[2-(4-chloro-3-methoxy-phenyl)-2-hydroxy-ethoxy]phenyl]oxazol-4-yl]phenoxy]ethanol]"
5,6.17,"COc1ccc(C(O)C(C)(C)Oc2ccc(-c3c[nH]c(-c4ccc(OC(C)(C)C(O)c5ccc(OC)c(OC)c5)cc4)n3)cc2)cc1OC (centres unmarked) [Compound I-54, 1-(3,4-dimethoxyphenyl)-2-[4-[2-[4-[2-(3,4-dimethoxyphenyl)-2-hydroxy-1,1-dimethyl-ethoxy]phenyl]-1H-imidazol-4-yl]phenoxy]-2-methyl-propan-1-ol]"
6,6.02,"COc1ccc(C(O)COc2ccc(-c3c[nH]c(-c4ccc(OCC(O)c5ccc(OC)c(OC)c5)cc4)n3)cc2)cc1OC (centres unmarked) [Compound I-53, 1-(3,4-dimethoxyphenyl)-2-[4-[2-[4-[2-(3,4-dimethoxyphenyl)-2-hydroxy-ethoxy]phenyl]-1H-imidazol-4-yl]phenoxy]ethanol]"
7,< 5.00,"COc1cc(C(O)COc2ccc(-c3csc(-c4ccc(OCC(O)c5ccc(OC(F)F)c(OC)c5)cc4)n3)cc2)ccc1OC(F)F (single isomer, unassigned) [Compound I-51, 1-[4-(difluoromethoxy)-3-methoxy-phenyl]-2-[4-[2-[4-[2-[4-(difluoromethoxy)-3-methoxy-phenyl]-2-hydroxy-ethoxy]phenyl]thiazol-4-yl]phenoxy]ethanol]"
8,7.38,"COc1ccc(C(O)C(C)(C)Oc2ccc(-c3csc(-c4ccc(OC(C)(C)C(O)c5ccc(OC)c(OC)c5)cc4)n3)cc2)cc1OC (single isomer, unassigned) [Compound I-28, 1-(3,4-dimethoxyphenyl)-2-[4-[2-[4-[2-(3,4-dimethoxyphenyl)-2-hydroxy-1,1-dimethyl-ethoxy]phenyl]thiazol-4-yl]phenoxy]-2-methyl-propan-1-ol]"
9,5.85,"COc1cc(C(O)COc2ccc(-c3coc(-c4ccc(OCC(O)c5cc(OC)c(OC)c(OC)c5)cc4)n3)cc2)cc(OC)c1OC (centres unmarked) [Compound I-20, 2-[4-[2-[4-[2-hydroxy-2-(3,4,5-trimethoxyphenyl)ethoxy]phenyl]oxazol-4-yl]phenoxy]-1-(3,4,5-trimethoxyphenyl)ethanol]"
10,5.40,"COc1ccc(C(O)COc2ccc(-c3coc(-c4ccc(OCC(O)c5ccc(OC)c(F)c5)cc4)n3)cc2)cc1F (centres unmarked) [Compound I-17, 1-(3-fluoro-4-methoxy-phenyl)-2-[4-[2-[4-[2-(3-fluoro-4-methoxy-phenyl)-2-hydroxy-ethoxy]phenyl]oxazol-4-yl]phenoxy]ethanol]"
11,6.45,"COc1cc(C(O)COc2ccc(-c3coc(-c4ccc(OCC(O)c5ccc(F)c(OC)c5)cc4)n3)cc2)ccc1F (centres unmarked) [Compound I-16, 1-(4-fluoro-3-methoxy-phenyl)-2-[4-[2-[4-[2-(4-fluoro-3-methoxy-phenyl)-2-hydroxy-ethoxy]phenyl]oxazol-4-yl]phenoxy]ethanol]"
